Measured values taken from US20060025394A1, “Estradiol-related compounds and methods of use as anti-tumor agents” (priority 2003, published 2006).
Entries after “also recorded” stand apart in the source; their conditions may differ.

Legend:
MCF-7 = test: MTS cell viability assay in MCF-7; format: cell-based; conditions: MCF-7, data not shown
Protocol: DU145, LNCaP, PC3, and MCF-7 cells were obtained from the American Type Culture Collection (Manassas, Va.). DU145, PC3, and MCF-7 cells were maintained in Dulbecco's modified Eagle's medium/F-12 supplemented with 5% heat inactivated Fetal Calf Serum and Penicillin/Streptomycin (Invitrogen Life Technologies, Carlsbad, Calif.). LNCaP cells were maintained in RPMI 1640 medium supplemented in the same fashion. Cells were cultured in 75 cm^2 flasks (Falcon, BD Biosciences, Bedford, Mass.) at 37° C. and 5% CO2. […]
Cell viability assays were carried out with five logs of concentration between 0.1 nM and […] for APVE2, including controls in three prostate cancer cell lines (DU145, LNCaP, and PC3, and in a breast cancer cell line (MCF-7). Upon completing five days of treatment, the medium in each well was exchanged for 400 μL of an MTS solution (3-(4,5-dimethylthiazol-2-yl)-5-(3-carboxymethoxyphenyl)-2-(4-sulfophenyl)-2H-tetrazolium, inner salt; O'Toole SA, 2003, Cancer Detect Prev., 2003;27(1):47-54) spiked into media as per the manufacture's instructions (Promega, Madison, Wis.) and incubated for 2 hours at 37° C. before reading the absorbance on the μQuant UV/VIS plate reader, in conjunction with KCjunior Software (Bio-Tek Instruments, Winooski, Vt.) set at 490 nm. […] EC50 values were calculated with GraphPad Prism software (GraphPad Software Inc., San Diego, Calif.).

ER-β = target: T1, ER-β (Homo sapiens, UniProt Q92731); test: Estrogen receptor relative binding affinity assay, fluorescence polarization, ER-β
T1 construct: purchased Pan Vera, Madison, Wis
T1 sequence (Q92731 whole entry): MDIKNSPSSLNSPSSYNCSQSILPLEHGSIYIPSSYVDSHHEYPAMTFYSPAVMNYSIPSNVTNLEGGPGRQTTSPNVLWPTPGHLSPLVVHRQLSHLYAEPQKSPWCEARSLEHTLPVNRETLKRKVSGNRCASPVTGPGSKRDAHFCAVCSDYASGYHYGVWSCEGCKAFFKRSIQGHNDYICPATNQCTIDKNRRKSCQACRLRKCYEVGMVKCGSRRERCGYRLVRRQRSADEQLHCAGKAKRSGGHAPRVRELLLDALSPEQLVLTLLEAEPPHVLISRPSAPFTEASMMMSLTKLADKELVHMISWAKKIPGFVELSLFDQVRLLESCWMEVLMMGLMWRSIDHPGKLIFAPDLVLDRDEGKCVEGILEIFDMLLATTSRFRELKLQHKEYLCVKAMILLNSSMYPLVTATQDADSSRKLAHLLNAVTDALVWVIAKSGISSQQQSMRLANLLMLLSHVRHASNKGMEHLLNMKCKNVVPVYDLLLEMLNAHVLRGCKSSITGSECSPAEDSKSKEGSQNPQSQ
Protocol: (§1) All assays were carried out as per the manufacture's instructions with the following modifications.

DU145 cells = test: ER competition study, MTS assay with E2 as the competitor; conditions: DU145, co- or 1 hour pre-treatment with 1 μM E2
ER-α = target: T2, ER-α (Homo sapiens, UniProt P03372); test: Estrogen receptor relative binding affinity assay, fluorescence polarization, ER-α
T2 construct: purchased Pan Vera, Madison, Wis
T2 sequence (P03372 1-595): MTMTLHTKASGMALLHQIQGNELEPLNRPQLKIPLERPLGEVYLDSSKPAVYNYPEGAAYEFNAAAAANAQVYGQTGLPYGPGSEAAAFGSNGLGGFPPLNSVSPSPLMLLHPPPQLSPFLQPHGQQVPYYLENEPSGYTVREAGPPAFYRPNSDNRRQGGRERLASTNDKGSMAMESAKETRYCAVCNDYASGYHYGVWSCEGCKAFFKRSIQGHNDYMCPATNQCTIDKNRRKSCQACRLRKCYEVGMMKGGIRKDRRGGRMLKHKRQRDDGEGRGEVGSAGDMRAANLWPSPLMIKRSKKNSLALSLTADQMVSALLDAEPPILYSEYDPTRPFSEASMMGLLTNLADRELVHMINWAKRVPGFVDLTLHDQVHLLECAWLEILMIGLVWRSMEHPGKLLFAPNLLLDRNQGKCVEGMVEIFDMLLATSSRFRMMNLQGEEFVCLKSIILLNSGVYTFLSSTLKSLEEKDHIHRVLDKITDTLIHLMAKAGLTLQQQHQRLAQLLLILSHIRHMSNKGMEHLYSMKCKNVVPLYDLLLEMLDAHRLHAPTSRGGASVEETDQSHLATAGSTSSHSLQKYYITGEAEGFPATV
Protocol: as §1

[1] = fluorescence polarization, 25° C., 2 hours
[2] = ratio of EC50 values as compared to E2

C[C@]12CC[C@@H]3c4ccc(O)cc4CC[C@H]3[C@@H]1CC[C@@]2(O)/C=C\c1ccc(N)cc1 [APVE2, 17α-20Z-21-[(4-amino)phenyl]-19-norpregna-1,3,5(10),20-tetraene-3,17β-diol]
cell death (MCF-7): did induce cell death | proliferation / growth response (MCF-7): no growth response; also recorded: did not cause an increase in proliferation | preference for ER-β over ER-α (ER-β): 7 fold | EC50 (ER-β; [1]): 250 nM | ER-β % RBA (ER-β; [2]): 6.2% | ER-α/ER-β (ER-β; ratio of RBAs): 0.14 | reversal of cytotoxicity of 16 nM APVE2 by E2 (DU145 cells): not effected; also recorded: not reversed | EC50 (ER-α; [1]): 365 nM | ER-α % RBA (ER-α; [2]): 0.87%
